Laboratory results reported in PubChem BioAssay (NCI).
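Dose response: 5 concentrations. Exposure: 48 h. Format: 96-well plates. Endpoint: linear interpolation; highest concentration if not reached. GI50 marks 50% less growth. The concentration for full growth arrest is given as TGI.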

What was measured:
Assay in all cases: NCI-60 cell line screen, 48 h
SW-620 colon = test system: SW-620 colon
OVCAR-5 ovarian = test system: OVCAR-5 ovarian
SNB-78 CNS = test system: SNB-78 CNS
OVCAR-3 ovarian = test system: OVCAR-3 ovarian
SF-268 CNS = test system: SF-268 CNS
SK-OV-3 ovarian = test system: SK-OV-3 ovarian
U251 CNS = test system: U251 CNS
A498 renal = test system: A498 renal
HL-60(TB) leukemia = test system: HL-60(TB) leukemia
HOP-92 NSCLC = test system: HOP-92 NSCLC
K-562 leukemia = test system: K-562 leukemia
RPMI-8226 leukemia = test system: RPMI-8226 leukemia
HCC-2998 colon = test system: HCC-2998 colon
MOLT-4 leukemia = test system: MOLT-4 leukemia
SF-295 CNS = test system: SF-295 CNS
DMS 273 small cell lung = test system: DMS 273 small cell lung
SR leukemia = test system: SR leukemia
LOX IMVI melanoma = test system: LOX IMVI melanoma
HT29 colon = test system: HT29 colon
EKVX NSCLC = test system: EKVX NSCLC
SK-MEL-28 melanoma = test system: SK-MEL-28 melanoma
KM20L2 colon = test system: KM20L2 colon
TK-10 renal = test system: TK-10 renal
ACHN renal = test system: ACHN renal
HCT-116 colon = test system: HCT-116 colon
OVCAR-4 ovarian = test system: OVCAR-4 ovarian
CCRF-CEM leukemia = test system: CCRF-CEM leukemia
IGROV1 ovarian = test system: IGROV1 ovarian
HOP-62 NSCLC = test system: HOP-62 NSCLC
RXF 393 renal = test system: RXF 393 renal
NCI-H460 lung = test system: NCI-H460 lung
A549 NSCLC = test system: A549 NSCLC
LXFL 529 NSCLC = test system: LXFL 529 NSCLC
SNB-75 CNS = test system: SNB-75 CNS
KM12 colon = test system: KM12 colon
HCT-15 colon = test system: HCT-15 colon
OVCAR-8 ovarian = test system: OVCAR-8 ovarian
SN12C renal = test system: SN12C renal
MALME-3M melanoma = test system: MALME-3M melanoma
NCI-H522 lung = test system: NCI-H522 lung
UO-31 renal = test system: UO-31 renal
786-0 renal = test system: 786-0 renal
SF-539 CNS = test system: SF-539 CNS
NCI-H23 lung = test system: NCI-H23 lung
COLO 205 colon = test system: COLO 205 colon
SK-MEL-5 melanoma = test system: SK-MEL-5 melanoma
SK-MEL-2 melanoma = test system: SK-MEL-2 melanoma
M14 melanoma = test system: M14 melanoma
HOP-18 NSCLC = test system: HOP-18 NSCLC
UACC-257 melanoma = test system: UACC-257 melanoma
UACC-62 melanoma = test system: UACC-62 melanoma
DLD-1 colon = test system: DLD-1 colon
NCI/ADR-RES ovarian = test system: NCI/ADR-RES ovarian
CAKI-1 renal = test system: CAKI-1 renal
MCF7 breast = test system: MCF7 breast
MDA-MB-231 breast = test system: MDA-MB-231 breast
SNB-19 CNS = test system: SNB-19 CNS
HS 578T breast = test system: HS 578T breast
PC-3 prostate = test system: PC-3 prostate
T-47D breast = test system: T-47D breast
DU-145 prostate = test system: DU-145 prostate
MDA-MB-435 = test system: MDA-MB-435
NCI-H226 lung = test system: NCI-H226 lung
MDA-N = test system: MDA-N
BT-549 breast = test system: BT-549 breast

`N.N.NCCCCN.O=C([O-])CCl.O=C([O-])CCl.O=C([O-])CCl.O=C([O-])CCl.[Pt+4].[Pt+4]` gave a TGI (SW-620 colon) of over 50 µM, a TGI (OVCAR-5 ovarian) of over 50 µM and a GI50 (SNB-78 CNS) of over 50 µM. The TGI (SNB-78 CNS) was over 50 µM, the TGI (OVCAR-3 ovarian) was over 50 µM and the TGI (SF-268 CNS) was over 50 µM. For the same compound, the TGI (SK-OV-3 ovarian) was over 50 µM, the TGI (U251 CNS) was over 50 µM and the TGI (A498 renal) was over 50 µM. For the same compound, the TGI (HL-60(TB) leukemia) was over 50 µM, the TGI (HOP-92 NSCLC) was over 50 µM and the TGI (K-562 leukemia) was over 50 µM. The GI50 (RPMI-8226 leukemia) was over 50 µM, the TGI (RPMI-8226 leukemia) was over 50 µM and the TGI (HCC-2998 colon) was over 50 µM. It also gave a TGI (MOLT-4 leukemia) of over 50 µM, a TGI (SF-295 CNS) of over 50 µM and a GI50 (DMS 273 small cell lung) of 36 µM. The TGI (DMS 273 small cell lung) was over 50 µM, the TGI (SR leukemia) was over 50 µM and the TGI (LOX IMVI melanoma) was over 50 µM. The TGI (HT29 colon) was over 50 µM, the TGI (EKVX NSCLC) was over 50 µM and the TGI (SK-MEL-28 melanoma) was over 50 µM. The GI50 (KM20L2 colon) was over 50 µM, the TGI (KM20L2 colon) was over 50 µM and the TGI (TK-10 renal) was over 50 µM. It also gave a TGI (ACHN renal) of over 50 µM, a TGI (HCT-116 colon) of over 50 µM and a TGI (OVCAR-4 ovarian) of over 50 µM. The TGI (CCRF-CEM leukemia) was over 50 µM, the TGI (IGROV1 ovarian) was over 50 µM and the TGI (HOP-62 NSCLC) was over 50 µM. The TGI (RXF 393 renal) was over 50 µM, the TGI (NCI-H460 lung) was over 50 µM and the TGI (A549 NSCLC) was over 50 µM. For the same compound, the GI50 (LXFL 529 NSCLC) was over 50 µM, the TGI (LXFL 529 NSCLC) was over 50 µM and the TGI (SNB-75 CNS) was over 50 µM. The TGI (KM12 colon) was over 50 µM, the TGI (HCT-15 colon) was over 50 µM and the TGI (OVCAR-8 ovarian) was over 50 µM. The GI50 (SN12C renal) was 9.99 µM, the TGI (SN12C renal) was 49.8 µM and the TGI (MALME-3M melanoma) was over 50 µM. For the same compound, the TGI (NCI-H522 lung) was over 50 µM, the TGI (UO-31 renal) was over 50 µM and the TGI (786-0 renal) was over 50 µM. The TGI (SF-539 CNS) was over 50 µM, the TGI (NCI-H23 lung) was over 50 µM and the TGI (COLO 205 colon) was over 50 µM. The TGI (SK-MEL-5 melanoma) was over 50 µM, the TGI (SK-MEL-2 melanoma) was over 50 µM and the TGI (M14 melanoma) was over 50 µM. It also gave a GI50 (HOP-18 NSCLC) of over 50 µM, a TGI (HOP-18 NSCLC) of over 50 µM and a TGI (UACC-257 melanoma) of over 50 µM. For the same compound, the TGI (UACC-62 melanoma) was over 50 µM, the GI50 (DLD-1 colon) was over 50 µM and the TGI (DLD-1 colon) was over 50 µM.

With `O=C1CCc2cc([N+](=O)[O-])ccc2O1` the TGI (SW-620 colon) was over 100 µM, the TGI (OVCAR-5 ovarian) was over 100 µM and the TGI (OVCAR-3 ovarian) was over 100 µM. The TGI (SF-268 CNS) was over 100 µM, the TGI (U251 CNS) was over 100 µM and the TGI (A498 renal) was over 100 µM. For the same compound, the TGI (HL-60(TB) leukemia) was over 100 µM, the TGI (HOP-92 NSCLC) was over 100 µM and the TGI (K-562 leukemia) was over 100 µM. The TGI (NCI/ADR-RES ovarian) was over 100 µM, the TGI (RPMI-8226 leukemia) was over 100 µM and the TGI (CAKI-1 renal) was over 100 µM. For the same compound, the TGI (HCC-2998 colon) was over 100 µM, the TGI (MOLT-4 leukemia) was over 100 µM and the TGI (SF-295 CNS) was over 100 µM. For the same compound, the TGI (SR leukemia) was over 100 µM, the TGI (LOX IMVI melanoma) was over 100 µM and the TGI (HT29 colon) was over 100 µM. The TGI (EKVX NSCLC) was over 100 µM, the TGI (SK-MEL-28 melanoma) was over 100 µM and the TGI (MCF7 breast) was over 100 µM. It also gave a TGI (TK-10 renal) of over 100 µM, a TGI (ACHN renal) of over 100 µM and a TGI (HCT-116 colon) of over 100 µM. For the same compound, the TGI (OVCAR-4 ovarian) was over 100 µM, the TGI (CCRF-CEM leukemia) was over 100 µM and the TGI (IGROV1 ovarian) was over 100 µM. For the same compound, the TGI (HOP-62 NSCLC) was over 100 µM, the TGI (RXF 393 renal) was over 100 µM and the TGI (NCI-H460 lung) was over 100 µM. For the same compound, the TGI (A549 NSCLC) was over 100 µM, the TGI (MDA-MB-231 breast) was over 100 µM and the TGI (SNB-19 CNS) was over 100 µM. For the same compound, the TGI (SNB-75 CNS) was over 100 µM, the TGI (HS 578T breast) was over 100 µM and the TGI (HCT-15 colon) was over 100 µM. The TGI (OVCAR-8 ovarian) was over 100 µM, the TGI (SN12C renal) was over 100 µM and the TGI (PC-3 prostate) was over 100 µM. It also gave a TGI (T-47D breast) of over 100 µM, a TGI (MALME-3M melanoma) of over 100 µM and a TGI (NCI-H522 lung) of over 100 µM. For the same compound, the TGI (786-0 renal) was over 100 µM, the TGI (DU-145 prostate) was over 100 µM and the TGI (MDA-MB-435) was over 100 µM. The TGI (SF-539 CNS) was over 100 µM, the TGI (NCI-H23 lung) was over 100 µM and the TGI (NCI-H226 lung) was over 100 µM. It also gave a TGI (COLO 205 colon) of over 100 µM, a TGI (SK-MEL-5 melanoma) of over 100 µM and a TGI (MDA-N) of over 100 µM. It also gave a TGI (SK-MEL-2 melanoma) of over 100 µM, a TGI (M14 melanoma) of over 100 µM and a TGI (BT-549 breast) of over 100 µM. For the same compound, the TGI (UACC-257 melanoma) was over 100 µM and the TGI (UACC-62 melanoma) was over 100 µM.
